For three compounds, pest or weed control, plant injury and Corn plant response rating (crop injury, 0 = no effect, 100 = complete kill) results are on record in patent publication US9302999B2, “Substituted triazoles as herbicides” (E. I. DU PONT DE NEMOURS AND COMPANY, priority 2012, dated 2016).

Assay type in all cases: in vivo
Experiment [1] has as its system foxtail, giant (giant foxtail, Setaria faberii). The experiment in a line: Test A pre-/postemergence: foxtail, giant. Conditions: Setaria faberi, 240 h; for pest or weed control at 125 g/ha: 125 g ai/ha; for pest or weed control at 500 g/ha: 500 g ai/ha. The procedure, abridged:
(§1)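 Whole-plant greenhouse assay in loam/sand. Preemergence directed soil spray plus simultaneous postemergence spray (one- to two-leaf stage, 2–10 cm). Rated visually ~10 days later, 0 = no effect, 100 = complete control.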

The test system of experiment [2] is morningglory (Ipomoea spp.). The experiment in a line: Test A pre-/postemergence: morningglory. Conditions: Ipomoea, 240 h; for pest or weed control at 125 g/ha: 125 g ai/ha; for pest or weed control at 500 g/ha: 500 g ai/ha. The procedure, abridged: as §1
The test system of a further experiment is corn (Zea mays). The experiment in a line: Test A pre-/postemergence: corn. Conditions: Zea mays, 240 h; for plant injury at 125 g/ha / plant injury at 500 g/ha: post-emergence, Postemergence, read-out: Corn plant response rating; for plant injury at 125 g/ha / Corn plant response rating (crop injury, 0 = no effect, 100 = complete kill) at 125 g/ha: 125 g ai/ha; for plant injury at 500 g/ha / Corn plant response rating (crop injury, 0 = no effect, 100 = complete kill) at 500 g/ha: 500 g ai/ha; for plant injury at 500 g/ha: visual rating on 0 to 100 scale (0 no effect, 100 complete control), approximately ten days; for Corn plant response rating (crop injury, 0 = no effect, 100 = complete kill) at 125 g/ha / Corn plant response rating (crop injury, 0 = no effect, 100 = complete kill) at 500 g/ha: pre-emergence, Preemergence. The procedure, abridged:
as §1

Setting [3] is: post-emergence, Postemergence, 0 to 100 scale, 0 is no effect, 100 is complete control, read-out: Foxtail, Giant plant response rating.
Where [4] appears, read: post-emergence, Postemergence, visual rating on 0 to 100 scale (0 no effect, 100 complete control), approximately ten days, read-out: Foxtail, Giant plant response rating.
The mark [5] stands for this setting: pre-emergence, Preemergence, 0 to 100 scale (0 no effect, 100 complete control), read-out: Plant response rating, Foxtail, Giant.
Setting [6] is: post-emergence, Postemergence, 0 to 100 scale, 0 is no effect, 100 is complete control, read-out: Morningglory plant response rating.
The mark [7] stands for this setting: post-emergence, Postemergence, visual rating on 0 to 100 scale (0 no effect, 100 complete control), approximately ten days, read-out: Morningglory plant response rating.
Where [8] appears, read: pre-emergence, Preemergence, 0 to 100 scale (0 no effect, 100 complete control), read-out: Plant response rating, Morningglory.
The mark [9] stands for this setting: 0 to 100 scale, 0 is no effect, 100 is complete control.
Where [10] appears, read: 0 to 100 scale (0 no effect, 100 complete control).
The mark [11] stands for this setting: pre-emergence, Preemergence, 0 to 100 scale where 0 is no effect and 100 is complete control, read-out: Plant response rating, Foxtail, Giant.
Where [12] appears, read: pre-emergence, Preemergence, 0 to 100 scale where 0 is no effect and 100 is complete control, read-out: Plant response rating, Morningglory.
[13] abbreviates: 0 to 100 scale where 0 is no effect and 100 is complete control.

Like-named read-outs stand apart in the source and are kept apart here.

As for `Cc1nn(-c2ccc(C(F)(F)F)cc2)nc1Oc1csc(C(F)(F)F)c1` [Compound 1, 4-methyl-2-[4-(trifluoromethyl)phenyl]-5-[[5-(trifluoromethyl)-3-thienyl]oxy]-2H-1,2,3-triazole], the pest or weed control at 125 g/ha in experiment [1] (setting [3]) came to 50%; in experiment [1] (setting [5]), 60%; in experiment [2] (setting [6]), 50%; in experiment [2] (setting [8]), 0%. For the same compound, the pest or weed control at 500 g/ha in experiment [1] (setting [4]) was determined as 70%; in experiment [1] (pre-emergence, Preemergence, 0 to 100 scale, 0 is no effect, 100 is complete control, read-out: Plant response rating, Foxtail, Giant), 100%; in experiment [2] (setting [7]), 100%; in experiment [2] (pre-emergence, Preemergence, 0 to 100 scale, 0 is no effect, 100 is complete control, read-out: Plant response rating, Morningglory), 20%. Moreover, in the experiment on corn (Zea mays) (setting [9]), the plant injury at 125 g/ha was found to be 20%. For the same compound, the plant injury at 500 g/ha in the experiment with corn (Zea mays) was determined as 20%. Also, the Corn plant response rating (crop injury, 0 = no effect, 100 = complete kill) at 125 g/ha with corn (Zea mays) (setting [10]) worked out at 0%. For the same compound, the Corn plant response rating (crop injury, 0 = no effect, 100 = complete kill) at 500 g/ha in the experiment on corn (Zea mays) (setting [9]) was determined as 0%.
In the case of `FCc1nn(-c2ccc(C(F)(F)F)cc2)nc1Oc1cccc(OC(F)(F)F)c1` [Compound 116, 4-(fluoromethyl)-5-[3-(trifluoromethoxy)phenoxy]-2-[4-(trifluoromethyl)phenyl]-2H-1,2,3-triazole], the pest or weed control at 125 g/ha in experiment [1] (setting [3]) came to 30%; in experiment [1] (setting [11]) it was 60%; in experiment [2] (setting [6]) it was 70%; in experiment [2] (setting [12]), 0%. Also, the pest or weed control at 500 g/ha in experiment [1] (setting [4]) turned out to be 50%; in experiment [1] (setting [5]), 90%; in experiment [2] (setting [7]), 100%; in experiment [2] (setting [8]), 10%. The plant injury at 125 g/ha with corn (Zea mays) (setting [9]) was found to be 20%. Moreover, in the experiment on corn (Zea mays), the plant injury at 500 g/ha is 30%. The compound also came in with a Corn plant response rating (crop injury, 0 = no effect, 100 = complete kill) at 125 g/ha with corn (Zea mays) (setting [13]) of 0%. Also, the Corn plant response rating (crop injury, 0 = no effect, 100 = complete kill) at 500 g/ha in the experiment on corn (Zea mays) (setting [10]) was found to be 10%.
Turning to `COCc1nn(-c2ccc(C(F)(F)F)cc2)nc1Oc1cccc(OC(F)(F)F)c1` [Compound 115, 4-(methoxymethyl)-5-[3-(trifluoromethoxy)phenoxy]-2-[4-(trifluoromethyl)phenyl]-2H-1,2,3-triazole], the pest or weed control at 125 g/ha in experiment [1] (setting [3]) amounted to 30%; in experiment [1] (setting [11]), 60%; in experiment [2] (setting [6]), 90%; in experiment [2] (setting [12]), 0%. In addition, the pest or weed control at 500 g/ha in experiment [1] (setting [4]) was 60%; in experiment [1] (setting [5]) it was 100%; in experiment [2] (setting [7]), 100%; in experiment [2] (setting [8]), 10%. For the same compound, the plant injury at 125 g/ha with corn (Zea mays) (setting [9]) came out at 10%. Besides, in the experiment with corn (Zea mays), the plant injury at 500 g/ha came to 30%. In the experiment with corn (Zea mays) (setting [13]), this compound registered a Corn plant response rating (crop injury, 0 = no effect, 100 = complete kill) at 125 g/ha of 0%. Moreover, the Corn plant response rating (crop injury, 0 = no effect, 100 = complete kill) at 500 g/ha with corn (Zea mays) (setting [10]) came out at 10%.
